row,Structure (SMILES),melting point
1,COc1cc(COc2nn(-c3ccccc3)cc2C(N)=O)ccc1OCc1nc(-c2ccccc2)oc1C,190 to 191 °C
2,COC(=O)[C@@H]1C[C@@H](OS(C)(=O)=O)CN1C(=O)C1(C(F)(F)F)CC1,123 to 124 °C
3,CCCCCCCC1=CC(=O)OC1(O)CNc1ccccc1 (configuration not stated),172 to 174 °C
4,O=C(O)Cc1ccc(NC(=O)C(COc2cccc(Cl)c2)NS(=O)(=O)c2ccc(Br)cc2)cc1 (racemic),225 to 228 °C
5,O=[N+]([O-])c1ccc(I)c(C(F)(F)F)c1,81 to 82 °C
6,CCCNC(=O)NC1Cc2ccc(C3=NNC(=O)CC3)cc2C1 (configuration not stated),214 to 216 °C
7,Clc1cc(-n2cncn2)ncn1,93 to 97 °C
8,Cc1ccc(C)n1CCNC(=O)CN(C)C,63 to 65 °C
9,CC(C)CC(NC(=O)CNc1ccc(Cl)cc1)C(=O)NCC#N (configuration not stated),131 to 134 °C
10,NS(=O)(=O)c1cc(C(=O)O)cc(C(F)(F)F)c1,244 to 246 °C
11,CCS(=O)(=O)c1sc(S(N)(=O)=O)cc1C(C)NC(C)=O (configuration not stated),213 to 220 °C
12,Cc1csc2c(C(=O)O)c(=O)c3cc4c(cc3n12)OCO4,303 to 305 °C
13,Nc1cc(O)cc(O)c1,150 °C
14,Oc1cccc(C2CCCN(CCc3c[nH]c4ccccc34)C2)c1 (configuration not stated),130 to 135 °C
15,Cc1cn(-c2cc(NC(=O)c3ccc(Cl)c(C#Cc4cnc(NC5CC5)nc4)c3)cc(C(F)(F)F)c2)cn1,163 to 165 °C
16,O=C1Nc2ncc(Br)cc2C1(Br)Br,157 to 158 °C
17,COC(=O)c1ccccc1OCNC(=O)OC(C)(C)C,95 to 96 °C
18,CN1C(=O)COc2cc(S(=O)Cc3ccccc3)ccc21 (configuration not stated),133 to 135 °C
19,C[Si](C)(C)OCCOC(=O)c1ccccc1S(N)(=O)=O,72 to 76 °C
20,COc1ccc2c(c1)c(CC1=CC(=O)N=N1)c(C)n2C(=O)c1ccc(Cl)cc1,> 230 °C
21,CS(=O)(=O)c1ccc(C2=C(c3ccc(F)c(Cl)c3)CCC2)cc1,87.5 to 88.5 °C
22,COc1cc(C)c(C(=O)c2c(OC)ccc(Br)c2Cl)c(OC)c1OC,87 to 88 °C
23,CCOC(=O)c1cnc2nn(C)cc2c1N1CCCCC1,185 to 188 °C
24,CCCCCC(C)C(C)c1cc(O)c2c(c1)OC(C)(C)C1=C2CN(CC(=O)N(C)C)CC1 (configuration not stated),122 to 124 °C
25,Cc1ccc(S(=O)(=O)NC[C@H](C)NCc2c(Cl)ccc([N+](=O)[O-])c2Cl)cc1,85 to 88 °C
26,COc1ccc(CSc2nnc(-c3ccc4c(c3)CCO4)o2)cc1Cl,136 to 137 °C

row,Structure (SMILES),melting point
1,CC(C(=O)O)c1ccc2c(c1)C(=O)Cc1cc(Cl)ccc1S2 (configuration not stated),195 to 196 °C
2,Cc1cc2c(s1)Oc1ccccc1N=C2N1CCN(C)CC1,132 to 133 °C
3,CC(C)(C)c1ccc(C=O)cc1NC(=O)CC1c2ccccc2Oc2ccccc21,172 to 174 °C
4,CCOC(C)c1cc(C(=O)OC)c(N)cc1C(F)(F)F (configuration not stated),100 to 103 °C
5,COCC1CN(c2ccc(C3CCC(OC(=O)c4ccccc4)CC3)cc2)C(=O)O1 (racemic),104 to 105 °C
6,CN1CCN(c2nnc3c4ccccc4c(Cl)cn23)CC1,150 to 153 °C
7,CS(=O)(=O)Nc1ccc(C(=O)CC(=O)C2CC2)c(Cl)c1,120 to 122 °C
8,C#Cc1cnn2c(C3CC3)cc(-c3ccc(Cl)cc3)nc12,181 to 182 °C
9,CC1CNCc2c1[nH]c1cnc3cc(Cl)ccc3c21 (configuration not stated),286 to 287 °C
10,O=C(NCCc1c[nH]c2ccccc12)Oc1ccccc1,44 to 46 °C
11,O=C(O)c1cccc(-c2nc(-c3cc(Cl)sc3Cl)cs2)c1,241 to 242 °C
12,O=C(O)Cc1nn(C/C=C/c2cccc(C(F)(F)F)c2F)c(=O)c2ccccc12,170 to 172 °C
13,CC1(C)CC(=C(c2ccc(O)cc2)c2ccc(-c3ccc(CO)cc3)cc2)CC(C)(C)C1,222 to 223 °C
14,O=C(c1ccccc1Nc1ccncc1)N1CCCCC1,153 to 156 °C
15,Fc1ccc(-c2nn3c(-c4ccccc4)cc(-c4ccccc4)nc3c2-c2ccncc2)cc1,243 to 245 °C
16,CCOC(=O)C(C#N)=Cc1cc(Oc2c(Cl)cc(C(F)(F)F)cc2Cl)ccc1[N+](=O)[O-],99 °C
17,COc1ccc(OC)c(C2(Cl)C(=O)Nc3ccc(Cl)cc32)c1 (configuration not stated),157 °C
18,CC(C)(C)OC(=O)Nc1ccc(-c2ccc(F)cc2)cc1NC(=O)CC(=O)c1cccc(C#N)c1,177 to 179 °C
19,COCCOc1cc2ncc(C#N)c(NC3CCCC3)c2cc1OC,87 to 90 °C
20,NCCc1cn(S(=O)(=O)c2ccccc2Cl)c2cccnc12,106 to 108 °C
21,CCc1[nH]n(C2CCCC2)c2nc(-c3cc(OCCN4CCOCC4)cc(OCCN4CCOCC4)c3)nc(=O)c1-2,182 to 183 °C
22,CCOC(=O)C(=O)Nc1c([N+](=O)[O-])cc(Br)c2ccccc12,190 to 191 °C
23,COc1nc(NC(C)C)nc(NC2CC2)n1,77 to 80 °C
24,CCOC(=O)/C=C/c1cnn(C)c1-c1cccnc1,159 to 160 °C
25,N#Cc1ccc(CN2CCN(c3cc(-c4ccccc4)c4ccc(=O)ccn34)CC2)cc1,196 °C
26,CS(=O)(=O)O[C@@H]1CCc2c(F)cc(F)cc2C1,79 to 80 °C

row,Structure (SMILES),melting point
1,COc1cc(NC(=S)NCCN)cc(OC)c1,125 to 126 °C
2,COC1OCC[C@@H]1NC(=O)[C@H](Cc1ccccc1)NC(=O)CNC(=O)COc1ccc2c(c1)Nc1ccccc1S2 (some centres not stated),203 to 204 °C
3,CC(C)[C@]1(CCc2ccc(O)cc2)CC(O)=C(Sc2cc(C(C)(C)C)cc3sc(N)nc23)C(=O)O1,168 to 179 °C
4,COc1cc(Nc2nccc(-c3ccc(NCC(C)(C)CN(C)C)nc3)n2)cc(OC)c1OC,125 °C
5,C=CCc1cc2c(C)c(C#N)c(=O)oc2c(C)c1O,163 to 164 °C
6,COc1ccc(NC(=O)C(=O)N2CCC(Cc3ccc(F)cc3)CC2)cc1,105 to 107 °C
7,O=C(Nc1cccc2c1C(=O)c1c-2n[nH]c1-c1ccc(C(=O)[C@]23CN[C@H](CN2)C3)s1)NN1CCOCC1,> 300 °C
8,Cc1cc(-c2ccc(S(C)(=O)=O)cc2)n(-c2ccc(C)c(C)c2)c1,126 to 128 °C
9,CCOC(=O)C1=NN(c2cccc(Cl)c2)C(c2ccccc2)CO1 (configuration not stated),103 to 104 °C
10,Nc1ccc2c3c(cccc13)C(=O)N([C@@H]1CN3CCC1CC3)C2=O,305 to 308 °C
11,CNC1=NN(C(=O)c2cccc([N+](=O)[O-])c2)C(C)(C)S1,130 to 133 °C
12,NC(=O)c1cc(OC(F)(F)F)ccc1O,188 to 190 °C
13,CN(C)CC1=NC(O)(CCl)CS1 (configuration not stated),90 to 92 °C
14,CCOC(=O)C1=C(C=O)NC(C=O)=C(C(=O)OCC)C1c1ccccc1Cl,85 to 86 °C
15,Cc1ccc(Oc2ccc(-c3nnc(N)o3)cc2)c(O)c1,181 to 183 °C
16,CNC(=O)CC(C)(C)c1ccc(C(=O)Nc2cn3cc(Cl)ccc3n2)cc1,228 to 230 °C
17,Cn1ncnc1-c1ccc(C(=O)C(=O)N2Cc3cccn3Cc3ccccc32)c(Cl)c1,141 to 143 °C
18,CCc1nccc(NC2COC(c3ccccc3)OC2)c1Cl (configuration not stated),119 to 120 °C
19,COC(=O)COc1c(Cl)cc(C(=O)CBr)cc1Cl,89 to 90 °C
20,Cc1cc(Br)cnc1CCCCNC1=NS(=O)(=O)c2cc([N+](=O)[O-])ccc21,235 to 242 °C
21,Cc1nnc2n1-c1sc(CCC(=O)O)cc1C(c1ccccc1Cl)=NC2C (configuration not stated),202 to 204 °C
22,CCCCNc1cncc(C#N)c1,73 °C
23,O=[S@@]1CCCC[C@@H]1c1cccnc1,124 to 126 °C
24,O=C(O)c1cc2cc(Cl)ccc2nc1N[C@@H](Cc1ccc(O)cc1)C(=O)O,176 to 188 °C
25,O=Cc1ccc(Oc2ccc([N+](=O)[O-])cc2)cc1,101 to 104 °C
26,COc1ccc([N+](=O)[O-])c(C#N)c1C,128 to 130 °C

row,Structure (SMILES),melting point
1,CCN1c2ncc(COc3ccccc3)cc2C(=O)N(C)c2ccc(Cl)nc21,140 to 141 °C
2,COc1cc(OC)nc(-n2c(OC)nc3ccccc32)n1,121 to 122 °C
3,OC(CC1CCN(CC2CC2)CC1)(c1ccccc1)c1ccc(F)cc1 (configuration not stated),115 to 116 °C
4,Cc1cc(CCCCCOc2c(Cl)cc(C3=NCCO3)cc2Br)on1,41 to 42 °C
5,CON1C(C)(C)CC(=O)CC1(C)C,35 to 38 °C
6,O=C(Nc1ccc(Cl)cc1)C1=C(O)CS(=O)(=O)N(Cc2ccc(Cl)cc2)c2ccccc21,182 to 183 °C
7,CCOCCOc1ccc(C(O)CNC(C)CCc2ccccc2)cc1C(=O)OC (configuration not stated),100 to 101 °C
8,COC(=O)CCC(=NO)c1ccccc1,76 to 77 °C
9,Cn1c([N+](=O)[O-])cnc1C1=NOC2CCCC12 (configuration not stated),89.5 to 91.5 °C
10,Cn1c(=O)c(-c2ccccc2Cl)cc2cnc(NC3C4CN(Cc5ccccc5)CC43)nc21 (configuration not stated),92 to 94 °C
11,CC(=O)N(O)CC1=C(n2ccccc2=O)c2cc(C(F)(F)F)ccc2OC1(C)C,188 °C
12,CCOC(=O)OC12Oc3cc(C(C)C)ccc3C1(O)C(=O)c1ccccc12 (configuration not stated),144 to 147 °C
13,Cc1ccc2c(c1)c1c(CC(=O)N(C)C)nn(-c3ccccc3)c(=O)c1n2C,209 to 210 °C
14,CCCCCN=C1SC(=CC(=O)O)C(=O)N1CCCCC,85 to 88 °C
15,CC(C)(C)OC(=O)N1CCC(O)(CS(=O)(=O)NC(c2ccccc2)c2ccccc2)CC1,121 to 123 °C
16,CC(C)(C)c1cc(-c2nnc(NS(C)(=O)=O)s2)cc(C(C)(C)C)c1O,293 to 294 °C
17,CNS(=O)(=O)c1ccc(N2CCN(c3ccncc3)CC2)cc1,204 to 206 °C
18,O=C(O)c1ccc(Cl)cc1NCc1cccnc1,235 to 236 °C
19,COC(=O)c1cc(NC(=O)c2cc(Br)ccc2Cl)ccc1-n1nc(C(F)(F)F)cc1C(F)(F)F,75 to 76 °C
20,COCCOC(=O)c1cc(C(=O)NOC)c(O)c2ncc(Cc3ccc(F)cc3)cc12,166 to 168 °C
21,COCC(=S)Nc1c(Cl)c(C)cc2nc(OC)c(OC)nc12,174 to 176 °C
22,O=C(O)CC1CCCc2c1n(Cc1ccc(F)cc1)c1c(F)cc(F)cc21 (configuration not stated),195 to 196 °C
23,O=C(O)C(Cc1cc(Oc2c(Cl)cc(C(F)(F)F)cc2Cl)ccc1SC(F)(F)F)C(=O)O,250 °C
24,Cc1cc(C)c(/C=C/C2OCC(C)(C)CO2)c(Br)c1,54 to 56 °C

# From a melting point compilation (Tetko et al.; mined from patent text by program, amines drawn as free bases though some values may be those of a salt)
